Results: patent US20090018134A1, “Compounds - 945” (AstraZeneca AB, priority 2007, published 2009)
pIC50: −log10 of the molar value.

Experiments:
mTOR [1] = biological target: T1, mTOR (Homo sapiens, UniProt P42345); assay: mTOR Kinase Assay (Echo); format: biochemical
T1 construct: FLAG; made in house

mTOR [2] = biological target: T1, mTOR; assay: In Vitro mTOR Kinase Assay (Echo), Test (a)(ii); format: biochemical; details: table of enzyme assay Test (a)(ii); read-out: Test (a)(ii) IC50
Outline: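 FLAG-tagged human mTOR truncation (residues 1362-2549) expressed in HEK293 cells and FLAG-purified. Compounds dispensed acoustically, reaction 2 h at room temperature, stopped with EDTA. Phosphorylation of biotinylated peptide detected by AlphaScreen with anti-p70 S6K (T389) antibody overnight; IC50 reported.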

T1 sequence (P42345 1362-2549): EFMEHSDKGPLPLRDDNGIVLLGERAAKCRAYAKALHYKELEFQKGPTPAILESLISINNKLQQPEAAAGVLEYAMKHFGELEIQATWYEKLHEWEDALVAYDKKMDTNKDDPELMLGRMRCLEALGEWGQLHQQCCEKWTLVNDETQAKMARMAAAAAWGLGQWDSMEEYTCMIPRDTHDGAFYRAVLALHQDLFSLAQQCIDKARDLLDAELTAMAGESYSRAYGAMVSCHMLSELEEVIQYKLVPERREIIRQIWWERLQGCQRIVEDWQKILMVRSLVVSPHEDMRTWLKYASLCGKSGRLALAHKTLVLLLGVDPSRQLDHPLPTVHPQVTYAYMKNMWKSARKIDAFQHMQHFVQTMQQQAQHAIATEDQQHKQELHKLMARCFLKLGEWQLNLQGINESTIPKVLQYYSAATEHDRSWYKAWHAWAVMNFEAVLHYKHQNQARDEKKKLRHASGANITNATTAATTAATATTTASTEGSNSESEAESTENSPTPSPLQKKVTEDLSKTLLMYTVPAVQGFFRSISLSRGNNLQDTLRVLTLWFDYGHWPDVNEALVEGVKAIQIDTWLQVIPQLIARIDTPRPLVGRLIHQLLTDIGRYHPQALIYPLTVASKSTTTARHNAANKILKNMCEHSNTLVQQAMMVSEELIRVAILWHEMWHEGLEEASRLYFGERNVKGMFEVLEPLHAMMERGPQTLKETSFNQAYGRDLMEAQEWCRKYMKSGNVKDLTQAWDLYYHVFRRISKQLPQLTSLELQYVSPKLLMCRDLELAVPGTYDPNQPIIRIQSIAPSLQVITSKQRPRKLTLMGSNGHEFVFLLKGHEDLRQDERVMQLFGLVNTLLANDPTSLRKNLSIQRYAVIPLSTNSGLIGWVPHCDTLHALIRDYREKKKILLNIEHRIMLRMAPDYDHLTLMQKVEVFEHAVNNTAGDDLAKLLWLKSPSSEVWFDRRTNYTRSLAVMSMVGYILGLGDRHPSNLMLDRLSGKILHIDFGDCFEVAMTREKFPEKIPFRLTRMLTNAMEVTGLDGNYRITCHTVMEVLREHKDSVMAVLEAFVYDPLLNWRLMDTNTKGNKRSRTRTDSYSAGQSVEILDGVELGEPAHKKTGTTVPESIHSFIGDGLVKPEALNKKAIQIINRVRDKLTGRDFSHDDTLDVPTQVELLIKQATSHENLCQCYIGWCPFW

Row | SMILES | pIC50 (mTOR [1]) | pIC50 (mTOR [2])
1 | O=C(Nc1ccc(-c2nc(N3CCOCC3)cc(C3(S(=O)(=O)c4ccc(F)cc4)CC3)n2)cc1)NC1CC1 [Example 36al, 3-cyclopropyl-1-[4-[4-[1-(4-fluorophenyl)sulfonylcyclopropyl]-6-morpholin-4-ylpyrimidin-2-yl]phenyl]urea] | 7.73 | 7.79
2 | C[C@H]1COCCN1c1cc(C2(S(=O)(=O)c3ccccc3)CCC2)nc(-c2ccc(NC(=O)NC3CC3)cc2)n1 [Example 36bs, 1-[4-[4-[1-(benzenesulfonyl)cyclobutyl]-6-[(3S)-3-methylmorpholin-4-yl]pyrimidin-2-yl]phenyl]-3-cyclopropylurea] | 8.79 | 8.58
3 | Cc1csc(S(=O)(=O)C2(c3cc(N4CCOC[C@@H]4C)nc(-c4ccc(NC(=O)NCCO)cc4)n3)CC2)n1 [Example 25g, 3-(2-hydroxyethyl)-1-[4-[4-[(3S)-3-methylmorpholin-4-yl]-6-[1-[(4-methyl-1,3-thiazol-2-yl)sulfonyl]cyclopropyl]pyrimidin-2-yl]phenyl]urea] | 8.92 | 8.84
4 | CNC(=O)Nc1ccc(-c2nc(N3CCOC[C@@H]3C)cc(C3(S(=O)(=O)c4ccc(F)cn4)CC3)n2)cc1 [Example 48, 1-[4-[4-[1-(5-Fluoropyridin-2-yl)sulfonylcyclopropyl]-6-[(3S)-3-methylmorpholin-4-yl]pyrimidin-2-yl]phenyl]-3-methylurea] | 8.60 | 9.14
5 | C[C@H]1COCCN1c1cc(C2(S(=O)(=O)c3ccccc3)CCC2)nc(-c2ccc(NC(=O)NCCO)cc2)n1 [Example 36bt, 1-[4-[4-[1-(benzenesulfonyl)cyclobutyl]-6-[(3S)-3-methylmorpholin-4-yl]pyrimidin-2-yl]phenyl]-3-(2-hydroxyethyl)urea] | 8.98 | 8.73
6 | N#CCCNC(=O)Nc1ccc(-c2nc(N3CCOCC3)cc(C3(S(=O)(=O)c4ccc(F)cc4)CC3)n2)cc1 [Example 36am, 3-(2-cyanoethyl)-1-[4-[4-[1-(4-fluorophenyl)sulfonylcyclopropyl]-6-morpholin-4-ylpyrimidin-2-yl]phenyl]urea] | 7.56 | 7.59
7 | C[C@H]1COCCN1c1cc(C2(S(=O)(=O)c3ccccc3)CC2)nc(-c2ccc(NC(=O)NCCO)cc2)n1 [Example 36bh, 1-[4-[4-[1-(benzenesulfonyl)cyclopropyl]-6-[(3S)-3-methylmorpholin-4-yl]pyrimidin-2-yl]phenyl]-3-(2-hydroxyethyl)urea] | 8.92 | 8.86
8 | CCNC(=O)Nc1ccc(-c2nc(N3CCOC[C@@H]3C)cc(C3(S(=O)(=O)c4ccc(Cl)cc4)CC3)n2)cc1 [Example 27f, 3-[4-[4-[1-(4-chlorophenyl)sulfonylcyclopropyl]-6-[(3S)-3-methylmorpholin-4-yl]pyrimidin-2-yl]phenyl]-1-ethylurea] | 9.02 | 9.00
9 | O=C(Nc1ccc(-c2nc(N3CCOCC3)cc(C3(S(=O)(=O)C4CC4)CC3)n2)cc1)NC1CCC1 [Example 13c, 3-cyclobutyl-1-[4-[4-(1-cyclopropylsulfonylcyclopropyl)-6-morpholin-4-ylpyrimidin-2-yl]phenyl]urea] | 8.62 | 8.76
10 | CNC(=O)Nc1ccc(-c2nc(N3CCOC[C@@H]3C)cc(C3(S(=O)(=O)c4ccccc4)CC3)n2)cc1 [Example 36bj, 1-[4-[4-[1-(benzenesulfonyl)cyclopropyl]-6-[(3S)-3-methylmorpholin-4-yl]pyrimidin-2-yl]phenyl]-3-methylurea] | 9.21 | 8.97
11 | C[C@H]1COCCN1c1cc(C2(S(=O)(=O)c3ccccc3)CC2)nc(-c2ccc(NC(=O)NC3CC3)cc2)n1 [Example 36bc, 1-[4-[4-[1-(benzenesulfonyl)cyclopropyl]-6-[(3S)-3-methylmorpholin-4-yl]pyrimidin-2-yl]phenyl]-3-cyclopropylurea] | 8.69 | 8.55
12 | C[C@H]1COCCN1c1cc(C2(S(=O)(=O)c3ccccn3)CC2)nc(-c2ccc(NC(=O)NCCO)cc2)n1 [Example 28g, 3-(2-hydroxyethyl)-1-[4-[4-[(3S)-3-methylmorpholin-4-yl]-6-(1-pyridin-2-ylsulfonylcyclopropyl)pyrimidin-2-yl]phenyl]urea] | 7.93 | 8.93
13 | CCNC(=O)Nc1ccc(-c2nc(N3CCOC[C@@H]3C)cc(C3(S(=O)(=O)c4ccccc4)CC3)n2)cc1 [Example 36bg, 3-[4-[4-[1-(benzenesulfonyl)cyclopropyl]-6-[(3S)-3-methylmorpholin-4-yl]pyrimidin-2-yl]phenyl]-1-ethylurea] | 9.04 | 8.72
14 | C[C@H]1COCCN1c1cc(C2(S(=O)(=O)c3ccc(Cl)cc3)CC2)nc(-c2ccc(NC(=O)NCCO)cc2)n1 [Example 27h, 1-[4-[4-[1-(4-chlorophenyl)sulfonylcyclopropyl]-6-[(3S)-3-methylmorpholin-4-yl]pyrimidin-2-yl]phenyl]-3-(2-hydroxyethyl)urea] | 10.07 | 9.61
15 | C[C@H]1COCCN1c1cc(C2(S(=O)(=O)c3ccccc3)CC2)nc(-c2ccc(NC(=O)NCCCO)cc2)n1 [Example 36bl, 1-[4-[4-[1-(benzenesulfonyl)cyclopropyl]-6-[(3S)-3-methylmorpholin-4-yl]pyrimidin-2-yl]phenyl]-3-(3-hydroxypropyl)urea] | 8.68 | 8.48
16 | C[C@H]1COCCN1c1cc(C2(S(C)(=O)=O)CC2)nc(-c2ccc(NC(=O)Nc3ncco3)cc2)n1 [Example 36ba, 1-[4-[4-[(3S)-3-methylmorpholin-4-yl]-6-(1-methylsulfonylcyclopropyl)pyri-midin-2-yl]phenyl]-3-(1,3-oxazol-2-yl)urea] | 8.51 | 8.78
17 | Cc1cnc(NC(=O)Nc2ccc(-c3nc(N4CCOC[C@@H]4C)cc(C4(S(C)(=O)=O)CC4)n3)cc2)cn1 [Example 36az, 3-[4-[4-[(3S)-3-methylmorpholin-4-yl]-6-(1-methylsulfonylcyclopropyl)pyri-midin-2-yl]phenyl]-1-(5-methylpyrazin-2-yl)urea] | 8.83 | 8.98
18 | C[C@H]1COCCN1c1cc(C2(S(=O)(=O)c3ccc(Cl)cc3)CC2)nc(-c2ccc(NC(=O)NCCN(C)C)cc2)n1 [Example 27g, 1-[4-[4-[1-(4-chlorophenyl)sulfonylcyclopropyl]-6-[(3S)-3-methylmorpholin-4-yl]pyrimidin-2-yl]phenyl]-3-(2-dimethylaminoethyl)urea] | 7.72 | 7.67
19 | C[C@H]1COCCN1c1cc(C2(S(=O)(=O)C(C)(C)C)CC2)nc(-c2ccc(NC(=O)NC3CCC3)cc2)n1 [Example 18a, 1-[4-[4-(1-tert-butylsulfonylcyclopropyl)-6-[(3S)-3-methylmorpholin-4-yl]pyrimidin-2-yl]phenyl]-3-cyclobutylurea] | 8.01 | 8.15
20 | CNC(=O)Nc1ccc(-c2nc(N3CCOC[C@@H]3C)cc(C3(S(=O)(=O)c4ccc(Cl)cc4)CC3)n2)cc1 [Example 27e, 1-[4-[4-[1-(4-chlorophenyl)sulfonylcyclopropyl]-6-[(3S)-3-methylmorpholin-4-yl]pyrimidin-2-yl]phenyl]-3-methylurea] | 9.14 | 9.45

The next lines start with the values.

Row | pIC50 (mTOR [1]) | pIC50 (mTOR [2]) | SMILES
21 | 8.19 | 8.66 | C[C@H]1COCCN1c1cc(C2(S(=O)(=O)c3ncc[nH]3)CC2)nc(-c2ccc(NC(=O)NC3CC3)cc2)n1 [Example 40a, 3-cyclopropyl-1-[4-[4-[1-(1H-imidazol-2-ylsulfonyl)cyclopropyl]-6-[(3S)-3-methylmorpholin-4-yl]pyrimidin-2-yl]phenyl]urea]
22 | 8.99 | 8.94 | C[C@H]1COCCN1c1cc(C2(S(=O)(=O)c3ccc(F)cn3)CC2)nc(-c2ccc(NC(=O)NC3CC3)cc2)n1 [Example 48a, 3-cyclopropyl-1-[4-[4-[1-(5-fluoropyridin-2-yl)sulfonylcyclopropyl]-6-[(3S)-3-methylmorpholin-4-yl]pyrimidin-2-yl]phenyl]urea]
23 | 8.26 | 8.16 | C[C@H]1COCCN1c1cc(C2(S(=O)(=O)c3ccccc3)CC2)nc(-c2ccc(NC(=S)NCCC#N)cc2)n1 [Example 37y, 1-[4-[4-[1-(benzenesulfonyl)cyclopropyl]-6-[(3S)-3-methylmorpholin-4-yl]pyrimidin-2-yl]phenyl]-3-(2-cyanoethyl)thiourea]
24 | 7.97 | 8.23 | C[C@H]1COCCN1c1cc(C2(S(C)(=O)=O)CC2)nc(-c2ccc(NC(=O)Nc3cnn(C)c3)c(F)c2)n1 [Example 52d, 1-[2-fluoro-4-[4-[(3S)-3-methylmorpholin-4-yl]-6-(1-methylsulfonylcyclopropyl)pyrimidin-2-yl]phenyl]-3-(1-methylpyrazol-4-yl)urea]
25 | 7.53 | 7.36 | C[C@H]1COCCN1c1cc(C2(S(=O)(=O)c3ccccc3)CC2)nc(-c2ccc(NC(=S)NCc3ncc[nH]3)cc2)n1 [Example 37ac, 1-[4-[4-[1-(benzenesulfonyl)cyclopropyl]-6-[(3S)-3-methylmorpholin-4-yl]pyrimidin-2-yl]phenyl]-3-(1H-imidazol-2-ylmethyl)thiourea]
26 | 8.52 | 8.31 | CNC(=S)Nc1ccc(-c2nc(N3CCOC[C@@H]3C)cc(C3(S(=O)(=O)c4ccccc4)CC3)n2)cc1 [Example 37ab, 1-[4-[4-[1-(benzenesulfonyl)cyclopropyl]-6-[(3S)-3-methylmorpholin-4-yl]pyrimidin-2-yl]phenyl]-3-methylthiourea]
27 | 7.94 | 7.79 | CCNC(=S)Nc1ccc(-c2nc(N3CCOC[C@@H]3C)cc(C3(S(=O)(=O)CCCO)CC3)n2)cc1 [Example 37k, 1-ethyl-3-[4-[4-[1-(3-hydroxypropylsulfonyl)cyclopro-pyl]-6-[(3S)-3-methylmorpholin-4-yl]pyrimidin-2-yl]phenyl]thiourea]
